Here are results for four molecules from US20210317099A1, “SAFER, POTENT, AND FAST ACTING ANTIMICROBIAL AGENTS” (Purdue Research Foundation, priority 2020, published 2021).

The subject of assay [1] is Staphylococcus aureus NRS384 (MRSA USA300). As to the kind of experiment: Initial MIC screening, broth microdilution (CLSI). The assay is classed as cell-based. Particulars: for potency compared with control antibiotic: MRSA USA300, Table 1 assay; for MIC: Staphylococcus aureus NRS384 (MRSA USA300), broth microdilution, visual reading. In outline:
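MRSA USA300 grown 24 h at 37 °C on tryptic soy agar, then adjusted to 5×10^5 CFU/ml in cation-adjusted Mueller-Hinton broth. Compounds serially diluted 64 to 0.5 μg/mL per CLSI broth microdilution; MIC recorded.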
On the technique in general: In broth dilution the organism is exposed to a series of concentrations in liquid medium.

A further assay has as its system S. pneumoniae ATCC 51916. The assay can be described thus: MIC, Gram-positive panel. It counts as cell-based. As to conditions: Streptococcus pneumoniae, ATCC51916; S. pneumoniae ATCC 51916; read-out: MIC. The method, then:
(§1) Next, the spectrum of antibacterial activity of compounds 144, 148, 149, 151, 155, 158, and 187 was examined against a panel of clinically relevant Gram-positive bacterial pathogens including methicillin-resistant Staphylococcus aureus (MRSA), vancomycin-resistant Staphylococcus aureus (VRSA), vancomycin-resistant Enterococcus faecalis and Enterococcus faecium (VRE), and Streptococcus pneumoniae. Bacterial strains were grown aerobically overnight on tryptone soya agar plates at 37° C. Afterwards, a bacterial solution equivalent to 0.5 McFarland standard was prepared and diluted in cation-adjusted Mueller-Hinton broth (CAMHB) (for staphylococci). Enterococci and Streptococci were diluted in tryptone soya broth (TSB) to achieve a bacterial concentration of about 5×10^5 CFU/mL and seeded in 96-well plates. Compounds and control drugs were added in the first row of 96-well plates and serially diluted with media containing bacteria. Plates were then, incubated aerobically at 37° C. for 18-20 hours (except for S. pneumoniae, which was incubated at 37° C. in presence of 5% CO2 for 18-20 hours).

Assay [2] relates to Enterococcus faecium ATCC 700221 (VRE). The assay can be described thus: MIC, Gram-positive panel. It counts as cell-based. As to conditions: Enterococcus faecium ATCC 700221 (VRE); read-out: MIC. The method, then:
as §1

Another assay relates to MRSA NRS 119. The assay can be described thus: MIC, Gram-positive panel. The assay is classed as cell-based. As to conditions: Staphylococcus aureus; MRSA NRS 119; read-out: MIC. The procedure:
as §1

A further assay relates to VRSA 12. The assay can be described thus: MIC, Gram-positive panel. It counts as cell-based. As to conditions: Staphylococcus aureus; VRSA 12; read-out: MIC. The procedure:
as §1

The test system of the next assay is S. aureus NRS 107. As to the kind of experiment: MIC, Gram-positive panel. It counts as cell-based. Particulars: Staphylococcus aureus, NRS107; S. aureus NRS 107; read-out: MIC. The method, then:
as §1

The next assay has as its system MRSA NRS 385. As to the kind of experiment: MIC, Gram-positive panel. The assay is classed as cell-based. As to conditions: Staphylococcus aureus; MRSA NRS 385; read-out: MIC. The procedure:
as §1

Assay [3] has as its system Methicillin-resistant S. epidermidis NRS101. As to the kind of experiment: MIC, Gram-positive panel. Particulars: Staphylococcus epidermidis; Methicillin-resistant S. epidermidis NRS101; read-out: MIC. It counts as cell-based. The method, then: as §1
Another assay deals with S. aureus ATCC 6538. The assay can be described thus: MIC, Gram-positive panel. The assay is classed as cell-based. Particulars: Staphylococcus aureus, ATCC6538; S. aureus ATCC 6538; read-out: MIC. The procedure: as §1
Assay [4] deals with Enterococcus faecalis ATCC 51299 (VRE). As to the kind of experiment: MIC, Gram-positive panel. It counts as cell-based. Particulars: Enterococcus faecalis ATCC 51299 (VRE); read-out: MIC. The method, then: as §1
The subject of assay [5] is Methicillin-resistant S. pneumoniae ATCC 700677. As to the kind of experiment: MIC, Gram-positive panel. The assay is classed as cell-based. As to conditions: Streptococcus pneumoniae, ATCC700677; Methicillin-resistant S. pneumoniae ATCC 700677; read-out: MIC. The method, then:
as §1

The test system of another assay is VRSA 10. The assay can be described thus: MIC, Gram-positive panel. It counts as cell-based. Particulars: Staphylococcus aureus; VRSA 10; read-out: MIC. The method, then: as §1
The subject of a further assay is MRSA NRS 123. The assay can be described thus: MIC, Gram-positive panel. It counts as cell-based. Particulars: Staphylococcus aureus; MRSA NRS 123; read-out: MIC. The method, then:
as §1

Another assay relates to MRSA NRS 386. The assay can be described thus: MIC, Gram-positive panel. As to conditions: Staphylococcus aureus; MRSA NRS 386; read-out: MIC. The assay is classed as cell-based. The method, then: as §1
In assay [6] the test system is total proteases production in MRSA USA300. The assay can be described thus: Inhibition of staphylococcal total proteases production, skimmed milk method. The assay is classed as cell-based, Staphylococcus aureus. As to conditions: MRSA USA300, 0.25×MIC, untreated = 100%. The method, then: The modified skimmed milk method was utilized to investigate the protease inhibitory activities of BHS compounds as described previously. In brief, overnight culture of MRSA300 in TSB, with and without subinhibitory concentrations of compounds (in triplicate), was centrifuged at 14000×g for 10 minutes. Then, a total volume of 500 μL of culture supernatant was incubated with 1 mL skimmed milk (1.25%) at 37° C. for 1 hour. Afterwards, the OD600 was measured to indicate the degree of clearance of skimmed milk. Higher OD values indicate lower proteolytic activity and greater protease inhibitory activity.
FIG. 4. Influence of BHS compounds on the staphylococcal total protease production. OD600 was measured following overnight culturing of MRSA USA300 in TSB in presence and absence of 0.25×MIC of 148, 149, 155, 158 and vancomycin followed by incubation of supernatants with skim milk for 1 hour at 37° C. The Data are presented as percent production (means±standard deviation). DMSO (the solvent for the compounds that served as a negative control). Vancomycin served as the control antibiotic. The values represent an average (means±standard deviation) of four samples analyzed for each compound/antibiotic. Error bars represent standard deviation values. An asterisk (*) denotes statistical significance (P<0.05) between results for compounds 148, 149, 155, 158 and vancomycin analyzed via unpaired t test ([…]).

[7] abbreviates: Staphylococcus aureus, read-out: MIC.

For orientation: MIC means the least concentration at which growth counts as inhibited.

Values after ≈ are worked out from the molar mass of the structure shown. Where two headings read alike, the source gives them in different places. Bounds are passed on as bounds.

`C=C1C(=O)O[C@H](c2ccc3ccccc3c2)[C@@H]1c1ccc2ccccc2c1` [Compound 158]: the “potency compared with control antibiotic” value in assay [1] is listed as “potency comparable to vancomycin”. The minimum inhibitory concentration (MIC) was 2 µg/mL (≈ 5.71 µM) in [1]; 1 to 2 µg/mL (≈ 2.85 to 5.71 µM) in assay [1] (setting [7]); 2 µg/mL (≈ 5.71 µM) in the assay with S. pneumoniae ATCC 51916; over 64 µg/mL in assay [2]; 1 µg/mL (≈ 2.85 µM) in the assay with MRSA NRS 119; 2 µg/mL (≈ 5.71 µM) in the assay with VRSA 12. Also, the MIC is 1 µg/mL (≈ 2.85 µM) in the assay with S. aureus NRS 107; 1 µg/mL (≈ 2.85 µM) in the assay with MRSA NRS 385; 0.5 µg/mL (≈ 1.43 µM) in assay [3]; 1 µg/mL (≈ 2.85 µM) in the assay on S. aureus ATCC 6538; over 64 µg/mL in assay [4]; 2 µg/mL (≈ 5.71 µM) in assay [5]. For the same molecule, the minimal inhibitory concentration (MIC) with VRSA 10, in the assay with MRSA NRS 123 and in the assay on MRSA NRS 386 was 1 µg/mL (≈ 2.85 µM) in each case. The total protease production in [6] came out at 56%.
In the case of `C=C1C(=O)O[C@H](c2cccc3ccccc23)[C@@H]1c1ccc2ccccc2c1` [Compound 155], in assay [1], the “potency compared with control antibiotic” value is listed as “potency comparable to vancomycin”. Further, the MIC was 2 µg/mL (≈ 5.71 µM) in assay [1]; 1 to 2 µg/mL (≈ 2.85 to 5.71 µM) in [1] (setting [7]); 1 µg/mL (≈ 2.85 µM) with S. pneumoniae ATCC 51916; over 64 µg/mL in [2]; 1 µg/mL (≈ 2.85 µM) with MRSA NRS 119; 2 µg/mL (≈ 5.71 µM) in the assay with VRSA 12. In addition, the MIC was 1 µg/mL (≈ 2.85 µM) in the assay with S. aureus NRS 107; 1 µg/mL (≈ 2.85 µM) with MRSA NRS 385; 1 µg/mL (≈ 2.85 µM) in [3]; 1 µg/mL (≈ 2.85 µM) with S. aureus ATCC 6538; over 64 µg/mL in assay [4]; 1 µg/mL (≈ 2.85 µM) in [5]. Further, the minimal inhibitory concentration (MIC) in the assay with VRSA 10, in the assay with MRSA NRS 123 and with MRSA NRS 386 was 1 µg/mL (≈ 2.85 µM) in each case. The molecule further yielded a total protease production in assay [6] of 65%.
Consider `C=C(C(=O)OC)C(c1ccc2ccccc2c1)C(O)c1cccc2ccccc12` (stereo not shown) [Compound 148], for which the “potency compared with control antibiotic” value in assay [1] is “potency comparable to vancomycin”. Further, the MIC in [1] was 2 µg/mL (≈ 5.23 µM); in assay [1] (setting [7]), 1 to 2 µg/mL (≈ 2.61 to 5.23 µM); in the assay on S. pneumoniae ATCC 51916, 1 µg/mL (≈ 2.61 µM); in assay [2] it was over 64 µg/mL; with MRSA NRS 119, 1 µg/mL (≈ 2.61 µM); in the assay with VRSA 12, 2 µg/mL (≈ 5.23 µM). Besides, the minimal inhibitory concentration (MIC) was 1 µg/mL (≈ 2.61 µM) in the assay on S. aureus NRS 107; 1 µg/mL (≈ 2.61 µM) in the assay on MRSA NRS 385; 1 µg/mL (≈ 2.61 µM) in assay [3]; 1 µg/mL (≈ 2.61 µM) with S. aureus ATCC 6538; over 64 µg/mL in assay [4]; 1 µg/mL (≈ 2.61 µM) in [5]. Moreover, the minimal inhibitory concentration (MIC) with VRSA 10 worked out at 2 µg/mL (≈ 5.23 µM); in the assay on MRSA NRS 123 it was 1 µg/mL (≈ 2.61 µM); with MRSA NRS 386 it was 1 µg/mL (≈ 2.61 µM). This molecule also registered a total protease production in assay [6] of 87%.
For the molecule `C=C1C(=O)O[C@H](c2ccccc2)[C@@H]1c1cccc2ccccc12` [Compound 151], the “potency compared with control antibiotic” value in assay [1] is given as “potency similar to the oxazolidinone class of antimicrobial drug linezolid”. For the same molecule, the minimum inhibitory concentration (MIC) is 1 µg/mL (≈ 3.33 µM) in assay [1]; 1 to 2 µg/mL (≈ 3.33 to 6.66 µM) in assay [1] (setting [7]); 4 µg/mL (≈ 13.3 µM) with S. pneumoniae ATCC 51916; over 64 µg/mL in assay [2]; 2 µg/mL (≈ 6.66 µM) in the assay on MRSA NRS 119; 2 µg/mL (≈ 6.66 µM) in the assay with VRSA 12. The MIC in the assay with S. aureus NRS 107 was 2 µg/mL (≈ 6.66 µM); in the assay with MRSA NRS 385 it was 1 µg/mL (≈ 3.33 µM); in assay [3], 8 µg/mL (≈ 26.6 µM); with S. aureus ATCC 6538, 2 µg/mL (≈ 6.66 µM); in assay [4] it was over 64 µg/mL; in assay [5] it was 4 µg/mL (≈ 13.3 µM). For the same molecule, the minimal inhibitory concentration (MIC) in the assay with VRSA 10 is 2 µg/mL (≈ 6.66 µM); with MRSA NRS 123, 2 µg/mL (≈ 6.66 µM); in the assay on MRSA NRS 386, 1 µg/mL (≈ 3.33 µM).
